Measurements taken from US7384914B2 (Emisphere Technologies, Inc., priority 2003, dated 2008).

How the values were obtained:
[1] = Pharmacokinetic studies of 4-CNAB after oral administration in mice; type: in vivo
[2] = Pharmacokinetic studies of 4-CNAB after oral administration in rats; type: in vivo
[3] = Pharmacokinetic studies of 4-CNAB after oral administration in monkeys; type: in vivo
[4] = system: primary molecular targets; test: Receptor binding screening assays
Genotoxicity studies = details: four genotoxicity studies
[5] = 14-day oral repeated dose toxicity study in monkeys; details: rhesus monkey, in vivo, 14 days
Description: In toxicology studies, 4-CNAB doses from 400 mg to 2000 mg were evaluated.

[6] = Open-label single-dose crossover study of oral Insulin/4-CNAB in type 2 diabetic subjects (fasting / standard meal); type: in vivo, human
Description: In the first part of the study, twenty-four human diabetic subjects (patients) of age 35-70 years, with elevated fasting blood glucose levels but in otherwise good general health on the basis of a medical history, physical examination and clinical laboratory studies, participated in the study and were studied in the overnight-fasted state on two occasions, separated by an interval of at least 7 days.

O=C(O)CCCNC(=O)c1ccc(Cl)cc1O [4-CNAB, monosodium N-(4-chlorosalicyloyl)-4-aminobutyrate]
4-CNAB absorption following oral administration [1]: absorbed rapidly | 4-CNAB absorption following oral administration [2]: absorbed rapidly | 4-CNAB absorption following oral administration [3]: absorbed rapidly | activity in primary molecular targets in receptor binding screening assays [4]: did not demonstrate potential activity | genotoxicity findings (Genotoxicity studies): no positive findings | highest proposed dose of 2000 mg 4-CNAB in man (<30 mg/kg) lower than the NOAEL in monkeys [5]: 12-16 fold | tolerability of 4-CNAB [6]: well tolerated | time of 4-CNAB concentration peak post administration ([6]; oral capsules): about 30 minutes
